Measurements: article PMC8347464, “Design, Synthesis, and In Vitro Antiproliferative Activity of Hydantoin and Purine Derivatives with the 4-Acetylphenylpiperazinylalkyl Moiety” (Materials, 2021)

Assays:
[1] = tested on: SW620 cells (human metastatic colon cancer); test: MTT assay, SW620 cells; format: cell-based; conditions: SW-620, 72 h, mean ± SD
Source text: (§1) Primary and metastatic colon cancer (SW480, SW620), metastatic prostate cancer (PC3), and human immortal keratinocyte (HaCaT) cell lines and immortal microvascular endothelial cells (HMEC-1) were obtained from the American Type Culture Collection (ATCC, Rockville, USA) and cultured in recommended medium, namely, MEM (Biowest SAS, France) for the SW480 and SW620 cells, RPMI 1640 (Biowest SAS, Nuaillé, France) for PC3, DMEM (Biowest SAS, France) for HaCaT and MCDB 131 (PAN BioTech, Aidenbach, Germany) for HMEC-1. The SW480 and SW620 cell lines were initiated by A. Leibovitz et al. and derived from a human primary colon adenocarcinoma and lymph node metastasis of the same patient. respectively. PC3 cell cells were initiated from a bone metastasis of a human prostatic adenocarcinoma. HaCaT cells were obtained from adult human skin, while HMEC-1 cells were established from the dermis of a human neonate. Cells were cultured in recommended medium supplemented with 10% FBS (Biowest SAS, Nuaillé, France), penicillin (100 U/mL), streptomycin […] (Gibco Life Technologies, Waltham MA, USA) and incubated at 37 °C under 5% CO2. The culture medium of HMEC-1 cells was additionally supplemented with glutamine (1 mM) and microvascular growth supplement (5%) (MVGS; Gibco, USA). The cells were cultured until 80% confluency was reached, harvested by treatment with 0.25% trypsin 0.02% EDTA (Gibco Life Technologies, Waltham, MA, USA) and subsequently used for further experiments.
(§2) Cell viability was estimated using a conversion of 3-(4,5-dimethylthiazol-2-yl)-2,5-diphenyltetrazolium bromide salt (MTT) to insoluble formazan crystals by mitochondrial dehydrogenases, present in living cells. Cells were cultured in 96-well plates (l × 10^4 cells per well) and incubated for 24 h at 37 °C under 5% CO2. Next, the cells were treated with various concentrations of the tested compounds (ranging from 10 to 180 μM) and incubated for 72 h at 37 °C under 5% CO2. Untreated cells were used as the control. Next, the medium was removed, MTT solution (0.5 mg/mL) was added to each well, and the cells were incubated for 4 h at 37 °C under 5% CO2. After that, the obtained formazan crystals were dissolved in DMSO and isopropanol (1:1, v/v). The optical density of the dissolved crystals was measured at a wavelength of 570 nm using a UVM 340 reader (ASYS Hitech GmbH, Austria). Cell viability was presented as a percent of MTT reduced in treated cells versus control cells. The relative MTT level (%) was calculated as [A]/[B] × 100, where [A] is the absorbance of the test sample, and [B] is the absorbance of the control sample. The IC50 value was estimated using CompuSyn version 1.0.

[2] = tested on: SW480 cells (human primary colon cancer); test: MTT assay, SW480 cells; format: cell-based; conditions: for IC50: Homo sapiens, SW480, MTT, 72 h, mean ± SD; for effectiveness against SW480 cells (in words): based on IC50, MTT 72 h
Source text: as §1, §2

[3] = tested on: PC3 cells (human metastatic prostate cancer); test: MTT assay, PC3 cells; format: cell-based; conditions: for IC50: Homo sapiens, PC-3, MTT, 72 h, mean ± SD
Source text: as §1, §2

[4] = tested on: HaCaT cells (human immortal keratinocyte); test: MTT assay, HaCaT normal cells; format: cell-based; conditions: for IC50: Homo sapiens, HaCaT, MTT, 72 h, mean ± SD, normal cells
Source text: as §1, §2

[5] = tested on: HMEC-1 cells (human immortal microvascular endothelial cells); test: MTT assay, HMEC-1 normal cells; format: cell-based; conditions: 72 h, mean ± SD
Source text: Primary and metastatic colon cancer (SW480, SW620), metastatic prostate cancer (PC3), and human immortal keratinocyte (HaCaT) cell lines and immortal microvascular endothelial cells (HMEC-1) were obtained from the American Type Culture Collection (ATCC, Rockville, USA) and cultured in recommended medium, namely, MEM (Biowest SAS, France) for the SW480 and SW620 cells, RPMI 1640 (Biowest SAS, Nuaillé, France) for PC3, DMEM (Biowest SAS, France) for HaCaT and MCDB 131 (PAN BioTech, Aidenbach, Germany) for HMEC-1. The SW480 and SW620 cell lines were initiated by A. Leibovitz et al. and derived from a human primary colon adenocarcinoma and lymph node metastasis of the same patient. respectively. PC3 cell cells were initiated from a bone metastasis of a human prostatic adenocarcinoma. […]
Cell viability was estimated using a conversion of 3-(4,5-dimethylthiazol-2-yl)-2,5-diphenyltetrazolium bromide salt (MTT) to insoluble formazan crystals by mitochondrial dehydrogenases, present in living cells. […] The optical density of the dissolved crystals was measured at a wavelength of 570 nm using a UVM 340 reader (ASYS Hitech GmbH, Austria). […] The relative MTT level (%) was calculated as [A]/[B] × 100, where [A] is the absorbance of the test sample, and [B] is the absorbance of the control sample. […]

[6] = target: T1, E. coli TP (thymidine phosphorylase, TP/PD-ECGF) (Escherichia coli, UniProt P07650); test: Thymidine phosphorylase inhibition; format: biochemical; conditions: 100 µM screening concentration
T1 construct: purchased Sigma T6632
T1 sequence (P07650 whole entry): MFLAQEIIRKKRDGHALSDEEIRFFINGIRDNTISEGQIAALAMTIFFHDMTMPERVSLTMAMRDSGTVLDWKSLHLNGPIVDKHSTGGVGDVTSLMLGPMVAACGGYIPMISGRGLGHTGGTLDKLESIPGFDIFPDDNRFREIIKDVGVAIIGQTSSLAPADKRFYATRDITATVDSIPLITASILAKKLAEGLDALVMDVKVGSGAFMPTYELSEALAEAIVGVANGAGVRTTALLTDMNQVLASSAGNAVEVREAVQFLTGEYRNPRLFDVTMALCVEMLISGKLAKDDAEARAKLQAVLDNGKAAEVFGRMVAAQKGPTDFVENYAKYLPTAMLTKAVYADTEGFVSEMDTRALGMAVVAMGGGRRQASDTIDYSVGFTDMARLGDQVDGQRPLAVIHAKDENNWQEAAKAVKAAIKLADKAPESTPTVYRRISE
Method: TP/PD-ECGF (E. coli TP (Sigma T6632)) activity was determined by measuring the absorbance at 290 nm spectrophotometrically, according to the manufacturer′s procedure [25]. Briefly the reaction mixture of 145 µL of potassium phosphate buffer (pH 7.4), 20 µL of 1.5 mM Thymidine 50 monophosphate solution as substrate, and 30 µL of an enzyme (E. coli TP, 0.05 and 0.002 U) was incubated with 5 µL of test materials for 10 min at 25 °C in a 96-well, flat bottom microplate (200 µL). Readings were taking by a microplate reader (SpectraMax Plus384, USA) at 290 nm. The readings were taken continuously after 10, 20, and 30 min by a microplate reader. All assays were performed in triplicate.

[7] = tested on: human erythrocytes; test: Determination of hemolytic activity; format: cell-based; conditions: 10^−6 or 10^−5 M, 37 °C, 30 min, PBS
Method: The hemolysis experiment was performed according to the previous report and was approved by the Bioethics Commission at the Lower Silesian Medical Chamber (1/PNHAB/2018). Freshly isolated human erythrocytes were incubated with compound 4 dissolved in DMSO (final concentration of 10^−6 or 10^−5 M) in PBS buffer at 37 °C for 30 min. The samples were then centrifuged and the absorbance of hemoglobin in the supernatants was measured at 540 nm. Additionally, negative (erythrocytes in PBS buffer), positive (erythrocytes in distilled water), and DMSO controls were also performed.

[8] = tested on: panel of 60 human cancer cell lines; parameters: method as in PMID 33387732; conditions: dose of 10 µM ref 14; cited from earlier work

Compound	IC50 [1] [µM]	IC50 [2] [µM]	effectiveness against SW480 cells (in words) [2]	IC50 [3] [µM]	melting point [°C]	IC50 [4] [µM]	growth-inhibitory potency against PC3 (in words) ([3]; MTT 72 h)	IC50 [5] [µM]	inhibition of thymidine phosphorylase activity [6] [%]	cytotoxic effect on HaCaT (in words) ([4]; 72-h exposure)	hemolytic activity against human red blood cells [7]	growth inhibition (in words) [8]
CC(=O)c1ccc(N2CCN(CCCCN3C(=O)NC4(CCc5ccccc54)C3=O)CC2)cc1 (racemic) [Compound 1, (R,S)-1-(4-(4-(4-Acetylphenyl)piperazin-1-yl)butyl)-2′,3′-dihydrospiro[imidazolidine-4,1′-indene]-2,5-dione]	67 ± 5.24	54.2 ± 3.89	effective	57.6 ± 5.86	180.2 to 181.3	41.8 ± 7.62	–	–	–	–	–	–
CC(=O)c1ccc(N2CCN(CCCCCN3C(=O)NC4(CCc5ccccc54)C3=O)CC2)cc1 (racemic) [Compound 2, (R,S)-1-(5-(4-(4-Acetylphenyl)piperazin-1-yl)pentyl)-2′,3′-dihydrospiro[imidazolidine-4,1′-indene]-2,5-dione]	43.1 ± 4.41	40.7 ± 3.54	effective	36.2 ± 4.98	155.3 to 156.2	22.6 ± 2.69	moderate growth-inhibitory potency	–	–	–	–	–
CC(=O)c1ccc(N2CCN(CCCCN3C(=O)NC4(CCCc5ccccc54)C3=O)CC2)cc1 (racemic) [Compound 3, (R,S)-1-(4-(4-(4-Acetylphenyl)piperazin-1-yl)butyl)-3′,4′-dihydro-2′H-spiro[imidazolidine-4,1′-naphthalene]-2,5-dione]	104 ± 7.36	129 ± 10.8	–	64.5 ± 6.76	168.8 to 170.2	114 ± 8.93	–	–	–	–	–	–
CC(=O)c1ccc(N2CCN(CCCCCN3C(=O)NC4(CCCc5ccccc54)C3=O)CC2)cc1 (racemic) [Compound 4, (R,S)-1-(5-(4-(4-Acetylphenyl)piperazin-1-yl)pentyl)-3′,4′-dihydro-2′H-spiro[imidazolidine-4,1′-naphthalene]-2,5-dione]	12.9 ± 3.16	16.8 ± 2.37	effective	20.6 ± 3.35	134.3 to 135.1	36.8 ± 5.32	–	149 ± 10.6	21.21	no significant cytotoxic effect	no hemolytic activity	–
CC(=O)c1ccc(N2CCN(CCCCN3C(=O)NC4(Cc5ccccc5C4)C3=O)CC2)cc1 [Compound 5, (R,S)-1-{4-[4-(4-Acetylophenyl)piperazyn-1-yl]butyl}-1′,3′-dihydro-2H,5H-spiro[imidazolidine-4,2′-indene]-2,5-dione]	> 200	102 ± 2.37	–	> 200	213.8 to 214.9	> 200	–	–	–	–	–	–
CC(=O)c1ccc(N2CCN(CCCCCN3C(=O)NC4(Cc5ccccc5C4)C3=O)CC2)cc1 [Compound 6, (R,S)-1-{5-[4-(4-Acetylophenyl)piperazyn-1-yl]pentyl}-1′,3′-dihydro-2H,5H-spiro[imidazolidine-4,2′-indene]-2,5-dione]	78.3 ± 4.76	53.7 ± 7.78	effective	95.1 ± 8.4	157.4 to 157.7	159 ± 14.1	–	–	–	–	–	–
CC(=O)c1ccc(N2CCN(CCCCn3ccn4c5c(=O)n(C)c(=O)n(C)c5nc34)CC2)cc1 [Compound 9, 8-(4-(4-(4-Acetylphenyl)piperazin-1-yl)butyl)-1,3-dimethyl-1H-imidazo[2,1-f]purine-2,4(3H,8H)-dione]	145 ± 3.76	153 ± 11.3	–	101 ± 15.4	252 to 253	72.8 ± 6.08	–	–	–	–	–	–
CC(=O)c1ccc(N2CCN(CCCCn3c(C)cn4c5c(=O)n(C)c(=O)n(C)c5nc34)CC2)cc1 [Compound 10, 8-(4-(4-(4-Acetylphenyl)piperazin-1-yl)butyl)-1,3,7-trimethyl-1H-imidazo[2,1-f]purine-2,4(3H,8H)-dione]	131 ± 12.6	> 200	–	86.1 ± 9.85	–	96.1 ± 5.32	–	–	–	–	–	–
CC(=O)c1ccc(N2CCN(CCCCCn3ccn4c5c(=O)n(C)c(=O)n(C)c5nc34)CC2)cc1 [Compound 11, 8-(5-(4-(4-Acetylphenyl)piperazin-1-yl)pentyl)-1,3-dimethyl-1H-imidazo[2,1-f]purine-2,4(3H,8H)-dione]	97.7 ± 10.7	> 200	–	60.28 ± 0.4	–	58.6 ± 4.91	–	–	–	–	–	–
CC(=O)c1ccc(N2CCN(CCCCn3c(=O)ccn4c5c(=O)n(C)c(=O)n(C)c5nc34)CC2)cc1 [Compound 12, 9-(4-(4-(4-Acetylphenyl)piperazin-1-yl)butyl)-1,3-dimethylpyrimido[2,1-f]purine-2,4,8(1H,3H,9H)-trione]	169 ± 22.9	> 200	–	71.9 ± 9.85	–	83.9 ± 4.2	–	–	–	–	–	–
CC(=O)c1ccc(N2CCN(CCCCCn3c(=O)ccn4c5c(=O)n(C)c(=O)n(C)c5nc34)CC2)cc1 [Compound 13, 9-(5-(4-(4-Acetylphenyl)piperazin-1-yl)pentyl)-1,3-dimethylpyrimido[2,1-f]purine-2,4,8(1H,3H,9H)-trione]	> 200	> 200	–	94.2 ± 8.36	–	126 ± 14.3	–	–	–	–	–	–
CC(=O)c1ccc(N2CCN(CCCCn3c(=O)c(Br)cn4c5c(=O)n(C)c(=O)n(C)c5nc34)CC2)cc1 [Compound 14, 9-(4-(4-(4-Acetylphenyl)piperazin-1-yl)butyl)-7-bromo-1,3-dimethylpyrimido[2,1-f]purine-2,4,8(1H,3H,9H)-trione]	> 200	> 200	–	91 ± 5.86	–	96.5 ± 4.93	–	–	–	–	–	–
CC(=O)c1ccc(NC(=O)Cn2c(Br)nc3c2c(=O)n(C)c(=O)n3C)cc1 [Compound 22e, N-(4-acetylphenyl)-2-[8-bromo-1,3-dimethyl-2,6-dioxo-2,3-dihydro-1H-purin-7(6H)-yl]acetamide]	–	–	–	–	–	–	–	–	–	–	–	moderate growth inhibition
COc1cccc2c1C(=O)c1c(O)c3c(c(O)c1C2=O)C[C@@](O)(C(=O)CO)C[C@@H]3O[C@H]1C[C@H](N)[C@H](O)[C@H](C)O1 [Doxorubicin, reference compound]	–	0.29 ± 0.08	–	0.59 ± 0.02	–	0.24 ± 0.03	–	–	–	–	–	–
